These results are taken from PubChem BioAssay (NCI).

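Cultured in 96-well plates, cells were exposed to test compound for 48 hours across five concentrations. TGI: total growth inhibition.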

Among the test systems are A549 NSCLC; HCC-2998 colon; IGROV1 ovarian; NCI-H460 lung; SF-539 CNS; SK-MEL-28 melanoma; U251 CNS; UACC-62 melanoma; MCF7 breast; MDA-MB-435.
What all share (assay): NCI-60 cell line screen, 48 h

As for `COc1ccc(N2C(=O)/C(=C(\C)c3cc4ccccc4oc3=O)N=C2c2cc([N+](=O)[O-])ccc2Cl)cc1`, the TGI in the assay with A549 NSCLC, with HCC-2998 colon, with IGROV1 ovarian, in the assay with NCI-H460 lung, with SF-539 CNS and in the assay on SK-MEL-28 melanoma was greater than 100 µM each time. Further, the TGI with U251 CNS and in the assay with UACC-62 melanoma was greater than 100 µM each time.
Regarding `CCOC(=O)C1(C#N)C(c2ccccc2)CC(O)(c2ccc(OC)cc2)C(C(=O)c2ccc(OC)cc2)C1c1ccccc1` (configuration not stated), the TGI in the assay on A549 NSCLC, in the assay on HCC-2998 colon, in the assay with IGROV1 ovarian, with NCI-H460 lung, with SK-MEL-28 melanoma and in the assay with U251 CNS was greater than 100 µM in each case. The same compound gave a TGI with UACC-62 melanoma greater than 100 µM.
Consider `Cc1c([N+](=O)[O-])ccc2c(NCCCN(C)C)ccnc12`, for which the TGI in the assay on A549 NSCLC was 40.5 µM; in the assay with IGROV1 ovarian, 52.7 µM; in the assay on MCF7 breast, 37.2 µM; in the assay on MDA-MB-435, 34.9 µM; in the assay with NCI-H460 lung, 33.2 µM; in the assay on SF-539 CNS, 31.2 µM. Further, the TGI was 54.5 µM with SK-MEL-28 melanoma, greater than 100 µM in the assay on U251 CNS and 39.4 µM in the assay on UACC-62 melanoma.
For the compound `COc1cc(OC)c(-c2ccc(OCc3ccccc3)c3c(OC)cc(C)cc23)c2c1C(C)=N[C@H](C)C2`, the TGI with A549 NSCLC was determined as 4.22 µM; in the assay with IGROV1 ovarian, 3.57 µM; in the assay with MDA-MB-435, 4.12 µM; in the assay with NCI-H460 lung it was 3.84 µM; with SF-539 CNS, 4.32 µM; in the assay on SK-MEL-28 melanoma, 4.38 µM. In addition, the TGI in the assay on U251 CNS was 3.91 µM; in the assay with UACC-62 melanoma, 3.84 µM.
With `CC(C)(C)[Si](C)(C)OCC1OC(n2ccc(N)nc2=O)C(O[Si](C)(C)C(C)(C)C)C1O[Si](C)(C)C(C)(C)C` (configuration not stated), the TGI with A549 NSCLC came to 11.6 µM; in the assay with IGROV1 ovarian it was 3.94 µM; in the assay on MCF7 breast, 5.33 µM; in the assay with NCI-H460 lung it was 3.7 µM; in the assay with UACC-62 melanoma, 3.64 µM.
Regarding `CCCCN(CCCC)CC(O)c1cc(-c2ccc(C(F)(F)F)cc2)nc(-c2ccc(C(F)(F)F)cc2)c1` (configuration not stated), the TGI in the assay on HCC-2998 colon is 65.6 µM; in the assay on IGROV1 ovarian, greater than 100 µM; in the assay on MDA-MB-435, greater than 100 µM; with NCI-H460 lung, greater than 100 µM; with SF-539 CNS, greater than 100 µM; with SK-MEL-28 melanoma, greater than 100 µM. Also, the TGI in the assay with U251 CNS and in the assay on UACC-62 melanoma was greater than 100 µM throughout.
Regarding `Cc1cc2c(cc1Cl)SC(NS(=O)(=O)c1ccc(Cl)cc1)=NS2(=O)=O`, the TGI is greater than 100 µM with A549 NSCLC; greater than 100 µM in the assay with IGROV1 ovarian; greater than 100 µM with MCF7 breast; greater than 100 µM with MDA-MB-435; greater than 100 µM in the assay on NCI-H460 lung; 73.9 µM in the assay on SF-539 CNS. The TGI in the assay on SK-MEL-28 melanoma, with U251 CNS and with UACC-62 melanoma was greater than 100 µM throughout.
As to `O=c1[nH]c2c(nc1NC13CC4CC(CC(C4)C1)C3)c(=O)oc1ccccc12`, the TGI in the assay with A549 NSCLC was greater than 100 µM; in the assay with HCC-2998 colon, greater than 100 µM; in the assay on IGROV1 ovarian, greater than 100 µM; in the assay with NCI-H460 lung it was greater than 100 µM; in the assay on SF-539 CNS, 35.8 µM; in the assay on SK-MEL-28 melanoma, greater than 100 µM. Also, the results for the TGI in the assay on U251 CNS and in the assay on UACC-62 melanoma were 33.1 µM and greater than 100 µM, respectively.
In the case of `COc1cccc2c1OC(c1ccc(Cl)cc1)C([N+](=O)[O-])=C2` (configuration not stated), the TGI in the assay with A549 NSCLC came to 22.5 µM; with IGROV1 ovarian, 9.19 µM; in the assay with MDA-MB-435, 8.68 µM; in the assay with NCI-H460 lung, 4.92 µM; in the assay on SK-MEL-28 melanoma it was 7.19 µM; with U251 CNS, 5.77 µM. This compound also gave a TGI in the assay with UACC-62 melanoma of 10.4 µM.
Regarding `CC(=O)c1ccc(NCc2cc(O)ccc2O)cc1`, the TGI in the assay with IGROV1 ovarian is greater than 100 µM; in the assay with MCF7 breast it was greater than 100 µM; in the assay with MDA-MB-435, 58.6 µM; with NCI-H460 lung, 39.9 µM; in the assay on SF-539 CNS it was 33 µM; with SK-MEL-28 melanoma, greater than 100 µM. The TGI was 54.5 µM with U251 CNS and 29.8 µM in the assay with UACC-62 melanoma.
For the compound `c1nc(OCC2CCCCC2)c2[nH]cnc2n1`, the TGI in the assay with A549 NSCLC, in the assay with HCC-2998 colon, in the assay on IGROV1 ovarian, in the assay on MDA-MB-435, with NCI-H460 lung and in the assay on SF-539 CNS was greater than 100 µM each time. In addition, the TGI in the assay on SK-MEL-28 melanoma, in the assay with U251 CNS and in the assay with UACC-62 melanoma was greater than 100 µM each time.
Turning to `N#Cc1c(-c2ccc(Cl)cc2)c2c([nH]c1=O)-c1ccccc1SC2`, the TGI with A549 NSCLC was greater than 100 µM; in the assay with IGROV1 ovarian it was greater than 100 µM; in the assay with MCF7 breast, greater than 100 µM; with MDA-MB-435, greater than 100 µM; in the assay on NCI-H460 lung, greater than 100 µM; in the assay with SF-539 CNS it was 68 µM. The TGI in the assay on SK-MEL-28 melanoma, in the assay with U251 CNS and with UACC-62 melanoma was greater than 100 µM in each case.
With `CO/N=C/c1cc(OC)c(OC)c(OC)c1`, the TGI in the assay on A549 NSCLC, with HCC-2998 colon, in the assay on IGROV1 ovarian, with NCI-H460 lung, in the assay with SF-539 CNS and with SK-MEL-28 melanoma was greater than 100 µM each time. Also, the TGI in the assay with U251 CNS and with UACC-62 melanoma was greater than 100 µM each time.
`O=C1NC(=O)C(c2c[nH]c3ccccc23)=C1c1cnc[nH]1`: the TGI in the assay on A549 NSCLC, in the assay with IGROV1 ovarian, in the assay on MCF7 breast, with MDA-MB-435, with NCI-H460 lung and in the assay with SF-539 CNS was greater than 100 µM in each case. The TGI in the assay on SK-MEL-28 melanoma and with U251 CNS was greater than 100 µM in each case.
On to `CC(C)(C)[Si](OC1CC(n2cnc3c(N)ncnc32)OC1CO)(c1ccccc1)c1ccccc1` (configuration not stated), for which the TGI with A549 NSCLC is 30 µM; with HCC-2998 colon, greater than 100 µM; in the assay with IGROV1 ovarian, 48 µM; in the assay with NCI-H460 lung, 30.7 µM; in the assay with SF-539 CNS, 36.7 µM; in the assay with SK-MEL-28 melanoma, 41.1 µM. Further, in the assay on U251 CNS, the TGI came to 34.1 µM.
With `COc1ccc(C2C(Cl)C(=O)N2n2cnc3ccccc3c2=O)cc1` (configuration not stated), the TGI with A549 NSCLC, with HCC-2998 colon, in the assay with IGROV1 ovarian, in the assay on NCI-H460 lung, in the assay on SK-MEL-28 melanoma and in the assay on U251 CNS was greater than 100 µM in each case. For the same compound, the TGI in the assay with UACC-62 melanoma was greater than 100 µM.
Regarding `CCCCc1c(N(C)C)c(OC(C)=O)c(-c2cn(C)c3ccccc23)oc1=O`, the TGI is greater than 100 µM with A549 NSCLC; 39.6 µM in the assay with MCF7 breast; 47.8 µM with MDA-MB-435; greater than 100 µM in the assay with NCI-H460 lung; 47.5 µM in the assay on SF-539 CNS; 57.9 µM in the assay with SK-MEL-28 melanoma. For the same compound, the TGI in the assay with U251 CNS was 64 µM; with UACC-62 melanoma it was 40.7 µM.
In the case of `FC(F)(F)c1ccc(N=C/C=C(/Nc2ccc(C(F)(F)F)cc2)c2ccc(Cl)cc2)cc1`, the TGI is 35.5 µM in the assay on A549 NSCLC; 25.5 µM with IGROV1 ovarian; 48 µM in the assay on MCF7 breast; 23 µM in the assay on MDA-MB-435; greater than 100 µM in the assay on NCI-H460 lung; 31.3 µM with SF-539 CNS. The figures for the TGI with SK-MEL-28 melanoma, in the assay on U251 CNS and in the assay on UACC-62 melanoma were 33.4 µM, 28.2 µM and 15.6 µM, respectively.
For the compound `CCOc1cc2c(OCc3ccccc3)cc3c4cc(OC)c(OC)cc4c[n+](C)c3c2cc1OC`, the TGI in the assay with A549 NSCLC was 24.2 µM; in the assay on HCC-2998 colon, 21.6 µM; in the assay with MCF7 breast, 4.44 µM; with NCI-H460 lung, greater than 58.9 µM; in the assay on SF-539 CNS, 5.43 µM; in the assay with U251 CNS it was 2.66 µM.
Consider `COc1cc2cc3c4c(cc(OC)c(OC)c4c2cc1OC)CCN3C(=O)OCCN1CCNCC1`, for which the TGI in the assay on A549 NSCLC stood at 34.4 µM; with HCC-2998 colon, 29.8 µM; in the assay on IGROV1 ovarian, 32.2 µM; with NCI-H460 lung, 26.6 µM; in the assay with SF-539 CNS, 28.4 µM; with SK-MEL-28 melanoma, 36.6 µM. For the same compound, the TGI is 28.9 µM in the assay on U251 CNS and 28.1 µM in the assay on UACC-62 melanoma.
On to `Nc1ccc2c(c1)N(C(=O)c1cc3cc(NC(=O)c4cc5ccccc5o4)ccc3[nH]1)CC2CCl` (configuration not stated), for which the TGI in the assay on A549 NSCLC was greater than 34.1 µM; in the assay with IGROV1 ovarian, greater than 100 µM; with MCF7 breast, 2.38 µM; in the assay with MDA-MB-435, 0.512 µM; with NCI-H460 lung, greater than 32.8 µM; with SK-MEL-28 melanoma, 0.502 µM. For the same compound, the figures for the TGI in the assay on U251 CNS and in the assay on UACC-62 melanoma were 12 µM and 0.794 µM, respectively.
For `CNc1ccc(C(=O)CC(O)CCC(C)C2OC(=O)CC(O)CC(=O)CC(O)CC(O)CC(O)CC(O)CC3(O)CC(O)C(C(=O)NCCN(C)C)C(CC(OC4OC(C)C(O)C(NC(=O)CN5CCN(C)CC5)C4O)/C=C/C=C/C=C/C=C\C=C/C=C/C=C/C2C)O3)cc1` (configuration not stated), the TGI in the assay on A549 NSCLC is greater than 100 µM; with IGROV1 ovarian it was greater than 100 µM; in the assay with MDA-MB-435 it was greater than 100 µM; with NCI-H460 lung, greater than 100 µM; in the assay with SF-539 CNS it was greater than 100 µM; with SK-MEL-28 melanoma it was 45.7 µM. Besides, the TGI with U251 CNS and with UACC-62 melanoma was greater than 100 µM in each case.
As for `CCc1cc2c(oc3cc4ccccc4cc32)c(=O)[nH]1`, the TGI with A549 NSCLC, with HCC-2998 colon, in the assay with IGROV1 ovarian, in the assay on NCI-H460 lung and with SF-539 CNS was greater than 10 µM each time.
